Measured values taken from patent publication US20170121752A1, “DETECTION OF ACRYLIC ACID” (AGENCY FOR SCIENCE, TECHNOLOGY AND RESEARCH, priority 2014, published 2017).
“Also recorded” adds a separate entry of the source.

Legend:
[1] = system: C. propionicum; test: Fluorescence signal of bacterial cell lysates grown with 3-butynoic acid; type: cell-based, Clostridium propionicum; details: media with 5 and 10 mM 3-butynoic acid, lysates treated with compound 4
Experimental: The cell lysates were treated with […] of diaryltetrazole compound 4 for fluorescence detection. […] 3-Butynoic acid, an acyl CoA dehydrogenase inhibitor, may be capable of promoting accumulation of acrylyl CoA in cells. In C. propionicum, acrylyl CoA is normally converted to propionyl CoA. However, in the presence of 3-butynoic acid, this reaction is inhibited. […] C. propionicum naturally produces acrylic acid but E. Coli. may not naturally produce acrylic acid.

[2] = Fluorescence assay of the photoactivated reaction between diaryltetrazole and acrylic acid; details: for λem,max / λex,max: 100 μM compound reacted with acrylic acid; for λem,max / λex,max / Fold increase in fluorescence 10 mM / Fold increase in fluorescence 100 μM: photoirradiation 1 minute at 302 nm; for Fold increase in fluorescence 10 mM / Fold increase in fluorescence 100 μM: 100 μM compound; for Fold increase in fluorescence 10 mM: 10 mM acrylic acid; for fluorescence increases above the background: reacted with acrylic acid, summary of Table 1; for Fold increase in fluorescence 100 μM / pH of signal detection peak: 100 μM acrylic acid
Experimental: A solution containing the diaryltetrazole (0.022 mmol) and acrylic acid (0.02 to 0.050 mmol) was irradiated with a hand-held 302-nm UV lamp for 1 minute. Experiments were performed in a black 96-well plate with a total reaction volume of 100 The maximum excitation wavelengths indicated in Table 1 were used for each of the scans. The fluorescence emission spectrums of the reaction are shown in FIG. 1a to if using 10 μM of acrylic acid. The spectra for control experiments where either of the reactants was omitted have also been depicted in each of FIGS. 1a to 1f.
As mentioned earlier, the lower limit of detection of acrylic acid for compound 4 was 500 nM of acrylic acid upon a 1 minute photoactivation period with UV light at 302 nm. […]
As described above, compound 4 was used in further experiments to detect acrylic acid. The reaction between compound 4 and acrylic acid was carried out in water with a photoactivation time of 1 minute at 302 nm. Using 100 μM of 4, acrylic acid concentrations from 1 μM to 100 μM were readily detectable with a fluorescence microplate reader (see FIG. 3 and example 9).

[3] = system: E. coli cells; test: In vivo detection of acrylic acid in E. coli cells by fluorescence microscopy; type: cell-based; details: 100 μM acrylic acid 10 minutes, 100 μM compound 4 30 min, UV 302 nm 1 minute
Experimental: The use of compound 4 as an acrylic acid sensor in vivo was tested in this example. E. coli cells were grown to late log phase (OD600˜1.0) and treated with 100 μM acrylic acid for 10 minutes at 37° C. Upon washing, cells were treated with 100 μM of compound 4 and incubated at 37° C. for 30 min in the dark. The cells were washed, pelleted, suspended in 1×PBS and mounted on a slide. They were then exposed to UV light at 302 nm for 1 minute and imaged under a fluorescence microscope (using DAPI filters) after about 2 hours of recovery at room temperature. Control cells include untreated cells; cells treated with either acrylic acid or compound 4 alone and without UV treatment.

[4] = Reaction monitoring of photoactivated cycloaddition using HPLC and fluorescence
Experimental: 10 mM of compound 4 was dissolved in dichloromethane and methanol (1:1). A separate solution of 10 mM of acrylic acid was dissolved in methanol. 10 μL of 10 mM of compound 4 and 10 μL of 10 mM of acrylic acid were then dissolved in 80 μL of methanol. After vigorous stirring, the mixture was irradiated with a 302 nm UV lamp for 0 seconds, 15 seconds, 30 seconds, 45 seconds, 60 seconds, 90 seconds and 120 seconds, respectively. An aliquot (10 μL) of reaction solution from each sample was withdrawn and immediately injected in the HPLC column. Compound 4 (denoted as A) and the pyrazoline product 4P (denoted as B) in each sample was monitored by UV absorbance at 254 nm and 370 nm. A linear gradient of 5 to 90% MeOH was applied after 3 minutes for 10 minutes, which is then kept constant for 10 minutes before a 7 minutes linear declining gradient of 90 to 5% MeOH. Compound 4 and product 4P were eluted at about 13.4 minutes and 12.4 minutes respectively.
The kinetic reaction studies involving diaryltetrazole compound 4 and acrylic acid were carried out by monitoring with HPLC from 0 to 120 seconds as described above.
Fluorescence turn on of the reaction mixture occurred after 15 seconds. The left vial to the right vial are labelled as no UV activation, 15 seconds, 30 seconds, 45 seconds, 60 seconds, 90 seconds, 120 seconds of UV activation, respectively. […]

[5] = system: C. propionicum cells; test: In vivo detection of acrylic acid in C. propionicum cells by fluorescence microscopy and lysate fluorescence; type: cell-based, Clostridium propionicum; details: 100 μM compound 4, 30 min, UV 302 nm 1 minute, with or without 100 μM acrylic acid added
Experimental: To test the diaryltetrazole sensor for in vivo production of acrylic acid, we applied compound 4 to C. propionicum cells. C. propionicum cells were grown to late log phase (OD600˜1.0) in an anoxia chamber and treated with 100 μM of compound 4. After incubating at 37° C. for 30 min in the dark, cells were washed, pelleted, suspended in PBS buffer and mounted on a slide. Cells were exposed to 302 nm UV light for 1 minute and imaged under a fluorescence microscope (using DAPI filters) after about 2 hours of recovery at room temperature. Control cells include cells treated with acrylic acid and compound 4 to observe positive fluorescence; untreated cells and cells treated with acrylic acid alone and without UV treatment. […] This indicates the production of acrylic acid intermediates in these cells and the diaryltetrazole probe is capable of detecting them.

[6] = Fluorescence assay of the photoactivated reaction between diaryltetrazole and acrylamide
Experimental: To substantiate the above, the reaction between compound 4 and acrylic acid (AA), and the reaction between compound 4 and acrylamide (a derivative), were carried out in buffers from pH 1 to pH 13. […] Deprotonation of the chromophore appears to result in higher fluorescence intensity of the pyrazoline product.
100 μM acrylic acid and 2 different grades of acrylamides, particularly gel electrophoresis acrylamide (GE) and molecular biology acrylamide (MB), were tested with 100 μM of compound 4 over the entire pH range. The reaction between compound 4 and acrylic acid/acrylamide was carried out in a phosphate buffer (having different pH as indicated) in 10% DMSO with a photoactivation time of 1 minute at 302 nm. Fluorescence was measured using a fluorescence microplate reader. […] Clearly, the detection method of the present disclosure is capable of detecting acrylate derivatives.
Compound 4 was also used to detect acrylamide in vitro. The reaction between compound 4 and acrylamide was carried out in phosphate buffer at pH 9.0 with 10% DMSO with a photoactivation time of 1 minute at 302 nm. Using 100 μM of compound 4, acrylamide concentrations from 1 μM to 100 μM were readily detectable with a fluorescence microplate reader as shown in FIG. 18.
10% (v/v) of different oils in a phosphate buffer of pH 9.0 containing 1% Tween-20 were spiked in with 10 mM Acrylamide (gel electrophoresis grade). Controls were uncontaminated. Reactions of these mixtures were set up with 100 μM of compound 4 with a photoactivation time of 1 minute at 302 nm. Fluorescence was measured using a fluorescence microplate reader.
100 μM of acrylic acid and acrylamide (gel electrophoresis grade) were tested with 100 μM of compound 4 over a pH range of 7 to 13. The reaction between compound 4 and acrylic acid/acrylamide was carried out in a phosphate buffer (having different indicated pH) in 10% DMSO with a photoactivation time of 1 minute at 302 nm. Fluorescence was measured using a fluorescence microplate reader.

Row | Compound | λem,max [2] [nm] | λex,max [2] [nm] | Fold increase in fluorescence 10 mM [2] | fluorescence increases above the background [2] | Fold increase in fluorescence 100 μM [2] | other results
1 | C#CCC(=O)O [3-butynoic acid, 3-Butynoic acid] | – | – | – | – | – | fluorescence signal of cell lysates [1]: fluorescence signal is higher
2 | COC(=O)c1ccc(-c2nnn(-c3ccccc3)n2)cc1 [Compound 1] | 482 | 395 | 3.23 | around 3 fold | – | –
3 | COC(=O)c1ccc(-c2nnn(-c3ccc(F)cc3)n2)cc1 [Compound 2] | 487 | 392 | 3.38 | around 3 fold | 1.12 | –
4 | COC(=O)c1ccc(-c2nnn(-c3ccc(F)cc3F)n2)cc1 [Compound 3] | 482 | 380 | 3.17 | around 3 fold | 1.12 | –
5 | O=C(O)c1ccc(-c2nnn(-c3ccccc3)n2)cc1 [Compound 4] | 520 | 380 | 5.15 | – | 132 | fluorescence of bacterial cells [3]: only fluorescent in the presence of both acrylic acid and compound 4; time to completion of the reaction with acrylic acid ([4]; HPLC monitoring, 302 nm UV, methanol): ≤ 90 s; time to fluorescence turn on of the reaction mixture ([4]; compound 4 and acrylic acid in methanol, UV activation): ≤ 15 s; fluorescence of cells [5]: cells were fluorescent; pH of signal detection peak ([2]; 100 μM compound 4, entire pH range, phosphate buffer 10% DMSO (FIG. 17)): 11.0 pH; pH of signal detection peak ([2]; 100 μM compound 4, pH range 7 to 13 (FIG. 21)): 10.0 pH; fluorescence detection of acrylic acid in LB media and minimum media ([2]; 100 μM compound 4, 1 min photoactivation): readily detected before the completion of photoactivation; lower limit of detection of acrylic acid ([2]; 1 minute photoactivation with UV light at 302 nm): 500 nM; Fold increase in fluorescence ([2]; Table 2: 100 μM compound 4, 500 nM acrylic acid): 1.12; Fold increase in fluorescence ([2]; Table 2: 100 μM compound 4, 1 μM acrylic acid): 1.58; Fold increase in fluorescence ([2]; Table 2: 100 μM compound 4, 10 μM acrylic acid): 17; Fold increase in fluorescence ([2]; Table 2: 100 μM compound 4, 100 μM acrylic acid): 132; fluorescence of the probe alone (control experiments) ([2]; buffers pH 1 to pH 13, without analyte): not fluorescent at all pH tested; pH of fluorescent peak ([6]; 100 μM acrylamide (gel electrophoresis grade), 100 μM compound 4, pH range 7 to 13 (FIG. 21)): 9.0 pH; pH of signal detection peak ([6]; 100 μM acrylamide, 100 μM compound 4, entire pH range, phosphate buffer 10% DMSO (FIG. 17)): 9.0 pH; detection of acrylamide in a complex organic/detergent mixture ([6]; 10% (v/v) oils, phosphate buffer pH 9.0, 1% Tween-20, 10 mM acrylamide, 100 μM compound 4): able to detect acrylamide in a complex organic/detergent mixture
6 | Cc1ccc(-c2nnn(-c3ccc(N)cc3)n2)cc1 [Compound 5] | – | – | – | – | – | fluorescence / reactivity towards acrylic acid ([2]; reaction with acrylic acid, photoactivation): No fluorescence; also recorded: unreactive towards acrylic acid, forming little or no fluorescent product
7 | COc1ccc(-n2nnc(-c3ccc(C)cc3)n2)cc1 [Compound 6] | – | 371 | 3.87 | around 3 fold | – | –
8 | COc1ccc(-n2nnc(-c3ccccc3)n2)cc1 [Compound 7] | – | 368 | 3.38 | around 3 fold | 1.43 | –
